The species entered for experiment [1] is Rattus norvegicus. In words: Androgenic activity in rat assessed as increase of ventral prostate weight (reference value: 18.1 +/- 0.91 mg). In kind it is functional, Prostate gland.
For experiment [2], the species on record is Rattus norvegicus. As to the kind of experiment: Androgenic activity in rat assessed as increase in final body weight (reference value: 98 g). In kind it is functional.
The species named for experiment [3] is Rattus norvegicus. As to the kind of experiment: Myotrophic activity in rat assessed as increase of levator ani weight (reference value: 32.2 +/- 1.82 mg). In kind it is functional.
Experiment [4] is filed under the species Rattus norvegicus. As to the kind of experiment: Androgenic activity in rat assessed as increase of seminal vesicle weight (reference value: 11.4 +/- 0.38 mg). In kind it is functional.
The species entered for experiment [5] is Rattus norvegicus. In words: Androgenic activity in rat assessed as increase of seminal vesicle weight at 0.3 mg (reference value: 11.4 +/- 0.38 mg). The class given is functional.
The species named for experiment [6] is Rattus norvegicus. In words: Myotrophic activity in rat assessed as increase of levator ani weight at 0.3 mg (reference value: 32.2 +/- 1.82 mg). The class given is functional.
The species entered for experiment [7] is Rattus norvegicus. As to the kind of experiment: Androgenic activity in rat assessed as increase of ventral prostate weight at 0.3 mg (reference value: 18.1 +/- 0.91 mg). The class given is functional, Prostate gland.
The species entered for experiment [8] is Rattus norvegicus. In words: Androgenic activity in rat assessed as increase in final body weight at 0.3 mg (reference value: 98 g). The class given is functional.
The species entered for experiment [9] is Rattus norvegicus. As to the kind of experiment: Myotrophic activity in rat assessed as increase of levator ani weight at 3 mg (reference value: 32.2 +/- 1.82 mg). The class given is functional.
The species entered for experiment [10] is Rattus norvegicus. In words: Androgenic activity in rat assessed as increase of seminal vesicle weight at 3 mg (reference value: 11.4 +/- 0.38 mg). The class given is functional.
The species named for experiment [11] is Rattus norvegicus. In words: Androgenic activity in rat assessed as increase of ventral prostate weight at 3 mg (reference value: 18.1 +/- 0.91 mg). In kind it is functional, Prostate gland.
The species named for experiment [12] is Rattus norvegicus. In words: Myotrophic activity in rat assessed as increase of levator ani weight at 3 mg in presence of testosterone (reference value: 32.2 +/- 1.82 mg). In kind it is functional.
The species entered for experiment [13] is Rattus norvegicus. As to the kind of experiment: Antiandrogenic activity in rat assessed as reduction in ventral prostate weight at 3 mg. The class given is functional, organism-based. The note with it: Prostate gland.
The species entered for experiment [14] is Rattus norvegicus. As to the kind of experiment: Antiandrogenic activity in rat assessed as reduction in seminal vesicle weight at 3 mg. In kind it is functional, organism-based.
Experiment [15] is filed under the species Rattus norvegicus. As to the kind of experiment: Androgenic activity in rat assessed as increase of seminal vesicle weight at 3 mg in presence of testosterone (reference value: 11.4 +/- 0.38 mg). In kind it is functional.
The species entered for experiment [16] is Rattus norvegicus. In words: Antimyotrophic activity in rat assessed as reduction in levator ani weight at 3 mg. The class given is functional, organism-based.
The species entered for experiment [17] is Rattus norvegicus. In words: Androgenic activity in rat assessed as increase of ventral prostate weight at 3 mg in presence of testosterone (reference value: 18.1 +/- 0.91 mg). The class given is functional, Prostate gland.
Experiment [18] is filed under the species Rattus norvegicus. In words: Androgenic activity in rat assessed as increase in final body weight at 3 mg (reference value: 98 g). In kind it is functional.
The species entered for experiment [19] is Rattus norvegicus. In words: Androgenic activity in rat assessed as increase in final body weight at 3 mg in presence of testosterone (reference value: 98 g). The class given is functional.

The source made the active and inactive calls. No cut-off for these calls is given here.

Consider `CC(=O)O[C@H]1CC[C@H]2[C@@H]3CC[C@H]4CN(Cc5ccccc5)C[C@]4(C)[C@H]3CC[C@]12C`, for which the Activity came to 19.4 mg in experiment [1], 89 g in experiment [2], 24.2 mg in experiment [3] and 10.7 mg in [4].
For the compound `C[C@]12CC[C@H]3[C@@H](CCC4=CC(=O)CC[C@@]43C)[C@@H]1CC[C@@H]2O` [TESTOSTERONE], the Activity in experiment [5] is 12.9 mg; in experiment [6] it was 37.8 mg; in experiment [7], 35.3 mg; in [8] it was 97 g.
In the case of `CC(=O)O[C@H]1CC[C@H]2[C@@H]3CC[C@H]4CN(C#N)C[C@]4(C)[C@H]3CC[C@]12C`, the Activity was 55.8 mg in experiment [9]; 33.3 mg in [10]; 56.1 mg in experiment [11]; 58.7 mg in experiment [12]; 40.6 mg in experiment [15]; 61.6 mg in [17]. Moreover, the Activity is recorded as 95 g in [18] and 99 g in experiment [19]. Also, the inhibition entry in [13], in [14] and in experiment [16] was “inactive” throughout.
